{"source": "paper PMC10343472", "about": "“Cyclopentenylcytosine (CPE-C): In Vitro and In Vivo Evaluation as an Antiviral against Adenoviral Ocular Infections” (Molecules, 2023)", "key": {"[1]": {"system": "HAdV1", "experiment": "plaque reduction assay in A549 cells, HAdV1", "format": "cell-based", "conditions": "Human adenovirus sp.", "description": "(§1) The in vitro antiviral testing was done using a standard plaque reduction assay with A549 human lung carcinoma cells as previously described. The EC50s were determined using a Fitted Line Plot Regression analysis with Minitab Version 21 software. The EC50 is the effective concentration that inhibits plaque formation by 50%. The HAdV types tested represent the most common adenovirus serotypes that cause ocular infections (HAdV8, HAdV19/64, HAdV37 (EKC); HAdV3, HAdV4, HAdV7a (follicular conjunctivitis)) and serotypes that cause conjunctivitis and can replicate in the rabbit ocular model (HAdV1, HAdV2, HAdV5).\n(§2) For the in vitro antiviral testing, clinical adenovirus isolates of types HAdV1, HAdV2, HAdV3, HAdV4, HAdV5, HAdV7a, HAdV8, and HAdV19/64 were anonymously collected from patients presenting with typical adenoviral conjunctivitis at the Charles T. Campbell Ophthalmic Microbiology Laboratory at the UPMC Eye Center, University of Pittsburgh, Pittsburgh, PA, USA. The isolates were retrieved from a frozen −80 °C retrospective clinical collection that was de-identified and stored for diagnostic test validations. The types of isolates were determined using serum neutralization. Recently, HAdV19 has been reclassified as HAdV64 [41]; however, for the purpose of this study, it was designated as HAdV19/64. No clinical isolates of HAdV37 were identified, therefore the ATCC (American Type Culture Collection, Manassas, VA, USA) reference strain of HAdV37 was used. The clinical isolates along with the ATCC HAdV37 reference strain were grown in A549 cell (CCL-185, ATCC) monolayers and stocks were prepared, aliquoted, and frozen at –80 °C. The titers of the stock viruses were determined as described in Section 4.7. The same clinical isolate of HAdV5 used for the in vitro antiviral testing was also used for the in vivo antiviral evaluation in the Ad5/NZW rabbit ocular replication model.\n(§3) A549 human lung carcinoma cells were grown and maintained in Eagle’s MEM supplemented with 10% fetal bovine serum (Sigma Cell Culture Reagents, St. Louis, MO, USA). The A549 cell line was used to prepare the adenovirus stocks and for the determination of viral titers in the Ad5/NZW rabbit ocular replication model and in the in vitro plaque reduction assays.\n(§4) Plaque reduction assays were performed 2–4 times using 24-well multiplates containing A549 monolayers. One plate per virus isolate per drug was used. The 24-well multiplates were inoculated with approximately 100 plaque-forming units (PFU) of HAdV per well. After a three-hour adsorption period, the inocula were removed from all wells. […] The plates were dried, and the number of plaques per well was counted using a dissecting microscope. […] The mean and standard deviation EC50 concentrations of 2–4 trials were then determined for each HAdV isolate. […]"}, "[2]": {"system": "HAdV2", "experiment": "plaque reduction assay in A549 cells, HAdV2", "format": "cell-based", "conditions": "Human adenovirus sp.", "description": "as §1, §2, §3, §4"}, "[3]": {"system": "HAdV3", "experiment": "plaque reduction assay in A549 cells, HAdV3", "format": "cell-based", "conditions": "Human adenovirus sp.", "description": "as §1, §2, §3, §4"}, "[4]": {"system": "HAdV4", "experiment": "plaque reduction assay in A549 cells, HAdV4", "format": "cell-based", "conditions": "Human adenovirus sp.", "description": "as §1, §2, §3, §4"}, "[5]": {"system": "HAdV5", "experiment": "plaque reduction assay in A549 cells, HAdV5", "format": "cell-based", "conditions": "Human adenovirus sp.", "description": "as §1, §2, §3, §4"}, "[6]": {"system": "HAdV8", "experiment": "plaque reduction assay in A549 cells, HAdV8", "format": "cell-based", "conditions": "Human adenovirus sp.", "description": "as §1, §2, §3, §4"}, "[7]": {"system": "HAdV19/64", "experiment": "plaque reduction assay in A549 cells, HAdV19/64", "format": "cell-based", "conditions": "Human adenovirus sp.", "description": "as §1, §2, §3, §4"}, "[8]": {"system": "HAdV37", "experiment": "plaque reduction assay in A549 cells, HAdV37", "format": "cell-based", "conditions": "Human adenovirus sp.", "description": "as §1, §2, §3, §4"}, "[9]": {"design": "method as in PMID 7554044", "conditions": "treatment of solid tumors; intravenous; cited from earlier work"}, "[10]": {"conditions": "A549, HAdV1, converted from μg/mL"}, "[11]": {"conditions": "HAdV1 clinical isolate, A549 cells, mean ± SD of 2–4 trials"}, "[12]": {"conditions": "A549, HAdV2, converted from μg/mL"}, "[13]": {"conditions": "HAdV2 clinical isolate, A549 cells, mean ± SD of 2–4 trials"}, "[14]": {"conditions": "A549, HAdV3, converted from μg/mL"}, "[15]": {"conditions": "HAdV3 clinical isolate, A549 cells, mean ± SD of 2–4 trials"}, "[16]": {"conditions": "A549, HAdV4, converted from μg/mL"}, "[17]": {"conditions": "HAdV4 clinical isolate, A549 cells, mean ± SD of 2–4 trials"}, "[18]": {"conditions": "A549, HAdV5, converted from μg/mL"}, "[19]": {"conditions": "HAdV5 clinical isolate, A549 cells, mean ± SD of 2–4 trials"}, "[20]": {"conditions": "A549, HAdV8, converted from μg/mL"}, "[21]": {"conditions": "HAdV8 clinical isolate, A549 cells, mean ± SD of 2–4 trials"}, "[22]": {"conditions": "A549, HAdV19/64, converted from μg/mL"}, "[23]": {"conditions": "HAdV19/64 clinical isolate, A549 cells, mean ± SD of 2–4 trials"}, "[24]": {"conditions": "A549, HAdV37, converted from μg/mL"}, "[25]": {"conditions": "HAdV37 ATCC reference strain, A549 cells, mean ± SD of 2–4 trials"}}}
{"smiles": "Nc1ccn([C@@H]2C=C(CO)[C@@H](O)[C@H]2O)c(=O)n1", "note": "[CPE-C, Cyclopentenylcytosine]", "values": [{"measurement": "EC50", "setting": "[1]; [10]", "value": "214 ± 27", "unit": "nM"}, {"measurement": "EC50", "setting": "[1]; [11]", "value": "0.051 ± 0.007", "unit": "µg/mL"}, {"measurement": "EC50", "setting": "[2]; [12]", "value": "198 ± 101", "unit": "nM"}, {"measurement": "EC50", "setting": "[2]; [13]", "value": "0.047 ± 0.024", "unit": "µg/mL"}, {"measurement": "EC50", "setting": "[3]; [14]", "value": "165 ± 16", "unit": "nM"}, {"measurement": "EC50", "setting": "[3]; [15]", "value": "0.04 ± 0.004", "unit": "µg/mL"}, {"measurement": "EC50", "setting": "[4]; [16]", "value": "134 ± 110", "unit": "nM"}, {"measurement": "EC50", "setting": "[4]; [17]", "value": "0.032 ± 0.026", "unit": "µg/mL"}, {"measurement": "EC50", "setting": "[5]; [18]", "value": "126 ± 138", "unit": "nM"}, {"measurement": "EC50", "setting": "[5]; [19]", "value": "0.03 ± 0.033", "unit": "µg/mL"}, {"measurement": "EC50", "setting": "[6]; [20]", "value": "246 ± 76", "unit": "nM"}, {"measurement": "EC50", "setting": "[6]; [21]", "value": "0.059 ± 0.018", "unit": "µg/mL"}, {"measurement": "EC50", "setting": "[7]; [22]", "value": "196 ± 118", "unit": "nM"}, {"measurement": "EC50", "setting": "[7]; [23]", "value": "0.047 ± 0.028", "unit": "µg/mL"}, {"measurement": "EC50", "setting": "[8]; [24]", "value": "202 ± 37", "unit": "nM"}, {"measurement": "EC50", "setting": "[8]; [25]", "value": "0.048 ± 0.008", "unit": "µg/mL"}, {"measurement": "patient deaths during clinical trials", "setting": "[9]", "value": "Two patient deaths from refractory hypotension"}]}
{"smiles": "Nc1ccn(C[C@@H](CO)OCP(=O)(O)O)c(=O)n1", "note": "[Cidofovir, cidofovir, reference compound]", "values": [{"measurement": "EC50", "setting": "[1]; [10]", "value": "18900 ± 2110", "unit": "nM"}, {"measurement": "EC50", "setting": "[1]; [11]", "value": "5.27 ± 0.588", "unit": "µg/mL"}, {"measurement": "EC50", "setting": "[2]; [12]", "value": "18300 ± 1470", "unit": "nM"}, {"measurement": "EC50", "setting": "[2]; [13]", "value": "5.11 ± 0.41", "unit": "µg/mL"}, {"measurement": "EC50", "setting": "[3]; [14]", "value": "14800 ± 3260", "unit": "nM"}, {"measurement": "EC50", "setting": "[3]; [15]", "value": "4.12 ± 0.91", "unit": "µg/mL"}, {"measurement": "EC50", "setting": "[4]; [16]", "value": "16500 ± 3310", "unit": "nM"}, {"measurement": "EC50", "setting": "[4]; [17]", "value": "4.61 ± 0.925", "unit": "µg/mL"}, {"measurement": "EC50", "setting": "[5]; [18]", "value": "17600 ± 1740", "unit": "nM"}, {"measurement": "EC50", "setting": "[5]; [19]", "value": "4.92 ± 0.486", "unit": "µg/mL"}, {"measurement": "EC50", "setting": "[6]; [20]", "value": "1560 ± 592", "unit": "nM"}, {"measurement": "EC50", "setting": "[6]; [21]", "value": "0.427 ± 0.173", "unit": "µg/mL"}, {"measurement": "EC50", "setting": "[7]; [22]", "value": "17500 ± 1850", "unit": "nM"}, {"measurement": "EC50", "setting": "[7]; [23]", "value": "4.9 ± 0.517", "unit": "µg/mL"}, {"measurement": "EC50", "setting": "[8]; [24]", "value": "17200 ± 2430", "unit": "nM"}, {"measurement": "EC50", "setting": "[8]; [25]", "value": "4.79 ± 0.678", "unit": "µg/mL"}]}
